A value given as a limit tells only on which side of the number the result lay.

One data set concerns DU145 (prostate cancer). Nature of the data set: Cytotoxicity on DU145 cancer cell line. The data set is classed as cell-based. As to conditions: Homo sapiens, DU-145; DU145 cells, 96 h treatment. The procedure:
(§1) The effect of the compounds described herein on tumor cells was determined by the assay described by Latham et al., Oncogene 12:827-837 (1996). Tumor cells K562 (chronic myelogenous leukemia; leukemia cell line +ve for Bcr-Abl) or DU145 (prostate cancer) were plated in 12-well dishes at a cell density of 2.5×10^4 cells per well. The plated cells were treated 24h. later with a DMSO solution of a compound as described herein at multiple concentrations ranging from 0.01 μM to 100 μM. The plates were examined 96 h. later under an inverted microscope, Olympus CK-2 using a 10× objective, and compound activity was noted by physical observation. When necessary, the total number of viable cells was determined by trypsinizing the wells and counting the number of viable cells, as determined by trypan blue exclusion, using a hemacytometer.

The subject of data set [1] is K562 (chronic myelogenous leukemia; leukemia cell line +ve for Bcr-Abl). Nature of the data set: Cytotoxicity on K562 cancer cell line. The data set is classed as cell-based. The conditions noted are these: Homo sapiens; K562 cells, 96 h treatment. The protocol: as §1

The term melting point denotes the temperature, or range, at which the solid turns liquid. The IC50 is the concentration needed to halve the response being measured. Low readings indicate higher potency, high ones lower potency. Take `CN1CCN(c2ccc(Nc3ncc4c(n3)S/C(=C/c3ccc(C#N)cc3)C(=O)N4)cc2)CC1` [Compound 1n, (E)-4-((2-((4-(4-Methylpiperazin-1-yl)phenyl)amino)-6-oxo-5H-pyrimido[4,5-b][1,4]thiazin-7(6H)-ylidene)methyl)benzonitrile]: the melting point fell in the range of 274 to 276 °C. Further, the IC50 with DU145 (prostate cancer) was less than 1 µM. The IC50 in data set [1] is less than 1 µM.
As for `CC(=O)Oc1ccc(/C=C2/Sc3nc(N4CCN(c5ccccn5)CC4)ncc3NC2=O)cc1` [Compound 1i, (E)-4-((6-Oxo-2-(4-(pyridin-2-yl)piperazin-1-yl)-5H-pyrimido[4,5-b][1,4]thiazin-7(6H)-ylidene)methyl)phenyl acetate], the IC50 (in the data set on DU145 (prostate cancer); in data set [1]) was 1 to 10 µM in each case.
For the compound `CC(=O)N(c1ccc(N2CCN(C)CC2)cc1)c1ncc2c(n1)S/C(=C/c1cn(C(C)=O)c3ccccc13)C(=O)N2` [Compound 1g, (E)-N-(7-((1-Acetyl-1H-indol-3-yl)methylene)-6-oxo-6,7-dihydro-5H-pyrimido[4,5-b][1,4]thiazin-2-yl)-N-(4-(4-methylpiperazin-1-yl)phenyl)acetamide], the IC50 (in the data set with DU145 (prostate cancer); in data set [1]) was 1 to 10 µM throughout.
Consider `COc1ccc(/C=C2/Sc3nc(N(C(C)=O)c4ccc(N5CCN(C)CC5)cc4)ncc3NC2=O)cc1[N+](=O)[O-]` [Compound 1d, (E)-N-(7-(4-methoxy-3-nitrobenzylidene)-6-oxo-6,7-dihydro-5H-pyrimido[4,5-b][1,4]thiazin-2-yl)-N-(4-(4-methylpiperazin-1-yl)phenyl)acetamide], for which the IC50 (in the data set on DU145 (prostate cancer); in data set [1]) was 1 to 10 µM throughout.
The compound `CN1CCN(c2ccc(Nc3ncc4c(n3)S/C(=C/c3ccc(O)cc3)C(=O)N4)cc2)CC1` [Compound 1q, (E)-7-(4-Hydroxybenzylidene)-2-((4-(4-methylpiperazin-1-yl)phenyl)amino)-5H-pyrimido[4,5-b][1,4]thiazin-6(7H)-one] had a melting point of 312 to 314 °C. In the data set on DU145 (prostate cancer), the IC50 is less than 1 µM. In data set [1], this compound showed an IC50 of less than 1 µM.
Consider `O=C1Nc2cnc(Nc3ccc(N4CCOCC4)cc3)nc2S/C1=C/c1ccc([N+](=O)[O-])cc1` [Compound 1k, (E)-2-((4-Morpholinophenyl)amino)-7-(4-nitrobenzylidene)-5H-pyrimido[4,5-b][1,4]thiazin-6(7H)-one], for which the melting point lay in the range of 302 to 304 °C. The compound further came in with an IC50 in the data set on DU145 (prostate cancer) of 50 to 100 µM. In addition, in data set [1], the IC50 lay within 50 to 100 µM.
`CN1CCN(c2ccc(Nc3ncc4c(n3)S/C(=C/c3ccc(N)cc3)C(=O)N4)cc2)CC1` [Compound 1h, (E)-7-(4-Aminobenzlidene)-2-(4-(4-methylpiperazin-1-yl)phenylamino)-5H-pyrimido[4,5-b][1,4]thiazin-6(7H)-one]: the IC50 with DU145 (prostate cancer) is 1 to 10 µM; in data set [1], less than 1 µM.
For `CC(=O)Oc1ccc(/C=C2/Sc3nc(Nc4ccc(N5CCN(C)CC5)cc4)ncc3NC2=O)cc1` [Compound 1c, (E)-4-((2-(4-(4-Methylpiperazin-1-yl)phenylamino)-6-oxo-5H-pyrimido[4,5-b][1,4]thiazin-7(6H)-ylidene)methyl)phenyl acetate], the IC50 (with DU145 (prostate cancer); in data set [1]) was 1 to 10 µM throughout.
As to `CC(=O)N(c1ccc(N2CCN(C)CC2)cc1)c1ncc2c(n1)S/C(=C/c1ccc(C(=O)O)cc1)C(=O)N2` [Compound 1l, (E)-4-((2-(N-(4-(4-Methylpiperazin-1-yl)phenyl)acetamido)-6-oxo-5H-pyrimido[4,5-b][1,4]thiazin-7(6H)-ylidene)methyl)benzoic acid], the melting point was in the range of 326 to 330 °C. The compound further displayed an IC50 with DU145 (prostate cancer) of 50 to 100 µM. In data set [1], this compound showed an IC50 of 50 to 100 µM.
Regarding `CN1CCN(c2ccc(Nc3ncc4c(n3)S/C(=C/c3ccc(F)cc3)C(=O)N4)cc2)CC1` [Compound 1a, (E)-7-(4-Fluorobenzylidene)-2-(4-(4-methylpiperazin-1-yl)phenylamino)-5H-pyrimido[4,5-b][1,4]thiazin-6(7H)-one], the IC50 (in the data set on DU145 (prostate cancer); in data set [1]) was 1 to 10 µM in each case.
With `CC(=O)N1CCN(c2ccc(Oc3ncc4c(n3)S/C(=C/c3ccc([N+](=O)[O-])cc3)C(=O)N4)cc2)CC1` [Compound 1f, (E)-2-(4-(4-Acetylpiperazin-1-yl)phenoxy)-7-(4-nitrobenzylidene)-5H-pyrimido[4,5-b][1,4]thiazin-6(7H)-one], the IC50 (in the data set on DU145 (prostate cancer); in data set [1]) was 10 to 25 µM throughout.
Compound `O=C1CSc2nc(SCc3c(Cl)cccc3Cl)ncc2N1` [Compound 4d, 2-(2,6-Dichlorobenzylthio)-5H-pyrimido[4,5-b][1,4]thiazin-6(7H)-one] yielded a melting point of 242 to 244 °C. The compound also registered an IC50 with DU145 (prostate cancer) of 25 to 50 µM. In data set [1], this compound gave a concentration for half-maximal inhibition (IC50) of 25 to 50 µM.
`O=C1Nc2cnc(N3CCN(c4ncccn4)CC3)nc2S/C1=C/c1ccc([N+](=O)[O-])cc1` [Compound 1j, (E)-7-(4-Nitrobenzylidene)-2-(4-(pyrimidin-2-yl)piperazin-1-yl)-5H-pyrimido[4,5-b][1,4]thiazin-6(7H)-one]: the values for the IC50 (with DU145 (prostate cancer); in data set [1]) were 25 to 50 µM and 50 to 100 µM, respectively.
As to `CN1CCN(c2ccc(Nc3ncc4c(n3)S/C(=C/c3ccc(C(N)=O)cc3)C(=O)N4)cc2)CC1` [Compound 1p, (E)-4-((2-((4-(4-Methylpiperazin-1-yl)phenyl)amino)-6-oxo-5H-pyrimido[4,5-b][1,4]thiazin-7(6H)-ylidene)methyl)benzamide], the melting point is 294 to 298 °C. The IC50 in the data set on DU145 (prostate cancer) was 1 to 10 µM. In data set [1], this compound registered an IC50 of 1 to 10 µM.
`CN1CCN(c2ccc(Nc3ncc4c(n3)S/C(=C/c3ccc(OCc5ccccc5)cc3)C(=O)N4)cc2)CC1` [Compound 1o, (E)-7-(4-(Benzyloxy)benzylidene)-2-((4-(4-methylpiperazin-1-yl)pheny)amino)-5H-pyrimido[4,5-b][1,4]thiazin-6(7H)-one] returned a melting point of 238 to 240 °C. The compound further yielded a half-maximal inhibitory concentration (IC50) in the data set with DU145 (prostate cancer) of less than 1 µM. This compound showed an IC50 in data set [1] of less than 1 µM.
For the compound `CN1CCN(c2ccc(Nc3ncc4c(n3)SCC(=O)N4)cc2)CC1` [Compound 4a, 2-(4-(4-methylpiperazin-1-yl)phenylamino)-5H-pyrimido[4,5-b][1,4]thiazin-6(7H)-one], the IC50 lay in the range of 10 to 25 µM with DU145 (prostate cancer) and 1 to 10 µM in data set [1].
The like results for `CC1CCN(c2ccc(Nc3ncc4c(n3)S/C(=C/c3ccc([N+](=O)[O-])cc3)C(=O)N4)cc2)CC1` [Compound 1m, (E)-2-((4-(4-Methylpiperidin-1-yl)phenyl)amino)-7-(4-nitrobenzylidene)-5H-pyrimido[4,5-b][1,4]thiazin-6(7H)-one] were, in that order, 1 to 10 µM and 1 to 10 µM.
The like results for `O=C1Nc2cnc(N3CCN(c4ccccn4)CC3)nc2S/C1=C/c1ccc([N+](=O)[O-])cc1` [Compound 1e, (E)-7-(4-Nitrobenzylidene)-2-(4-(pyridin-2-yl)piperazin-1-yl)-5H-pyrimido[4,5-b][1,4]thiazin-6(7H)-one] were, in that order, 1 to 10 µM and 10 to 25 µM.

Values taken from patent US20140142094A1, “KINASE INHIBITORS” (ICAHN SCHOOL OF MEDICINE AT MOUNT SINAI, priority 2011, published 2014).
